Among the data in patent US10189863B2, “5,6-dihydro-4H-benzo[b]thieno-[2,3-d]azepine derivatives” (PULMOCIDE LIMITED, priority 2014, dated 2019) are IC50, inhibition and CC50 values, retold here.

Series [1] has as its system RSV A2 strain. The series is described as follows: Assessment of RSV induced CPE in HEp2 cells (RSV A2 strain). Type of series: cell-based. As to conditions: human respiratory syncytial virus; for IC50: HEp-2, 120 h; for inhibition at 0.01 µg/mL: Inhibition (%) at 0.01 μg/mL. The gist of the method: (§1)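 HEp2 cells were infected at MOI 1 with RSV A2 or RSV B Washington, with compound added at the same time (0.5% DMSO final). Incubation was 5 days for A2 and 6 days for B, then viability was read by resazurin fluorescence (545/590 nm) after 6 h. IC50, IC75 and IC90 came from concentration-response curves.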

The subject of series [2] is RSV B Washington strain. In words: Assessment of RSV induced CPE in HEp2 cells (RSV B Washington strain). Type of series: cell-based. The settings on record: human respiratory syncytial virus; for IC50: HEp-2, 144 h; for inhibition at 0.1 µg/mL: Inhibition (%) at 0.1 μg/mL. The gist of the method: as §1
Series [3] can be described thus: Cell viability: resazurin assay. Type of series: cell-based, human. As to conditions: human, HEp2 cells. The gist of the method: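 HEp2 cells in 5% FBS DMEM exposed to compounds (0.5% DMSO final) for 5 days at 37 °C/5% CO2, then resazurin added for 6 h; fluorescence read at 545/590 nm. Percent viability loss calculated versus 0.5% DMSO vehicle, with increases shown as negative values; CC50 taken from concentration-response curves where appropriate.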

The mark [4] stands for this setting: HEp2 cells, 1 MOI, 5 days, read-out: RSV A2 CPE IC50.
[5] abbreviates: HEp2 cells, 1 MOI, 6 days, read-out: RSV B CPE IC50.
Setting [6] is: HEp-2, HEp2 cells, Inhibition (%) at 1 μg/mL, read-out: RSV B CPE % Inhibition.
[7] abbreviates: HEp-2, HEp2 cells, Inhibition (%) at 0.1 μg/mL, read-out: RSV A2 CPE % Inhibition.

Molecules are shown by their SMILES. Where two headings read alike, the source gives them in different places.

The term IC50 denotes the midpoint of a concentration-inhibition curve. One may read the inhibition as the relative decrease from the control value, in per cent. Broadly, the CC50 is the concentration at which the toxic effect on the cells reaches its halfway point. A higher CC50 goes with lower toxicity to the cells. `Cc1cnc(N2CC3(CCOCC3)C2)c(C(=O)Nc2ccc(C(=O)N3CCc4cc(C(=O)Nc5c(F)cccc5I)sc4-c4ccccc43)cc2)c1` [Example 6, N-(2-Fluoro-6-iodophenyl)-6-(4-(5-methyl-2-(7-oxa-2-azaspiro[3.5]nonan-2-yl)nicotinamido)benzoyl)-5,6-dihydro-4H-benzo[b]thieno[2,3-d]azepine-2-carboxamide]: the IC50 in series [1] (setting [4]) is 0.13 nM; in series [2] (setting [5]), 4.2 nM. The molecule also showed an inhibition at 0.01 µg/mL in series [1] (HEp-2, HEp2 cells) of 100%. Also, the inhibition at 1 µg/mL in series [2] (setting [6]) was found to be 100%. For the same molecule, in series [3], the CC50 at 5 days is above 12100 nM.

In the case of `COc1cnc(N2CC3(CCOCC3)C2)c(C(=O)Nc2ccc(C(=O)N3CCc4cc(C(=O)Nc5c(C)cccc5F)sc4-c4ccccc43)cc2)c1` [Example 71, N-(2-fluoro-6-methylphenyl)-6-(4-(5-methoxy-2-(7-oxa-2-azaspiro[3.5]nonan-2-yl)nicotinamido)benzoyl)-5,6-di-hydro-4H-benzo[b]thieno[2,3-d]azepine-2-carboxamide], the concentration for half-maximal inhibition (IC50) in series [1] (setting [4]) turned out to be 0.61 nM; in series [2] (setting [5]) it was 15.5 nM. In series [1] (HEp-2, HEp2 cells), this molecule yielded an inhibition at 0.01 µg/mL of 100%. In addition, the inhibition at 0.1 µg/mL in series [2] (HEp-2, HEp2 cells) turned out to be 100%. In addition, in series [3], the half-maximal cytotoxic concentration (CC50) at 5 days was above 13700 nM.

As to `Cc1ccc(C(=O)Nc2ccc(C(=O)N3CCc4cc(C(=O)Nc5c(F)cc(F)cc5F)sc4-c4ccccc43)cc2)c(N2CC3(CCOCC3)C2)n1` [Example 50, 6-(4-(6-methyl-2-(7-oxa-2-azaspiro[3.5]nonan-2-yl)nicotinamido)benzoyl)-N-(2,4,6-trifluorophenyl)-5,6-dihydro-4H-benzo[b]thieno[2,3-d]azepine-2-carboxamide], the IC50 in series [1] (setting [4]) came out at 0.13 nM; in series [2] (setting [5]), 1.7 nM. In series [1] (setting [7]), the inhibition at 0.1 µg/mL came to 100%. The inhibition at 1 µg/mL in series [2] (setting [6]) was found to be 100%. The 50% cytotoxic concentration (CC50) at 5 days in series [3] was above 13600 nM.

Turning to `O=C(Nc1ccccc1F)c1cc2c(s1)-c1ccccc1N(C(=O)c1ccc(NC(=O)c3cccnc3N3CC4(CCOCC4)C3)cc1F)CC2` [Example 29, 6-(4-(2-(7-oxa-2-azaspiro[3.5]nonan-2-yl)nicotinamido)-2-fluorobenzoyl)-N-(2-fluorophenyl)-5,6-dihydro-4H-benzo[b]thieno[2,3-d]azepine-2-carboxamide], the IC50 was determined as 0.13 nM in series [1] (setting [4]) and 27.9 nM in series [2] (setting [5]). For the same molecule, the inhibition at 0.1 µg/mL in series [1] (setting [7]) was found to be 97%. The inhibition at 1 µg/mL in series [2] (setting [6]) turned out to be 73%. This molecule also yielded a half-maximal cytotoxic concentration (CC50) at 5 days in series [3] above 14200 nM.

For the molecule `COc1cccc(F)c1NC(=O)c1cc2c(s1)-c1ccccc1N(C(=O)c1ccc(NC(=O)c3cc(C)cnc3N3CC4(CCOCC4)C3)cc1)CC2` [Example 53, N-(2-fluoro-6-methoxyphenyl)-6-(4-(5-methyl-2-(7-oxa-2-azaspiro[3.5]nonan-2-yl)nicotinamido)benzoyl)-5,6-di-hydro-4H-benzo[b]thieno[2,3-d]azepine-2-carboxamide], the half-inhibitory concentration (IC50) in series [1] (setting [4]) worked out at 0.23 nM; in series [2] (setting [5]), 14.6 nM. Further, the inhibition at 0.1 µg/mL in series [1] (setting [7]) amounted to 94%. Also, the inhibition at 1 µg/mL in series [2] (setting [6]) amounted to 96%. The molecule also yielded a 50% cytotoxic concentration (CC50) at 5 days in series [3] above 13700 nM.

With `Cc1cnc(N2CC3(CCOCC3)C2)c(C(=O)Nc2ccc(C(=O)N3CCc4cc(C(=O)Nc5c(C)cccc5Cl)sc4-c4ccccc43)cc2)c1` [Example 56, N-(2-chloro-6-methylphenyl)-6-(4-(5-methyl-2-(7-oxa-2-azaspiro[3.5]nonan-2-yl)nicotinamido)benzoyl)-5,6-dihydro-4H-benzo[b]thieno[2,3-d]azepine-2-carboxamide], the figures for the 50% inhibitory concentration (IC50) in series [1] (setting [4]) and in series [2] (setting [5]) were 0.14 nM and 4.1 nM, respectively. Moreover, in series [1] (setting [7]), the inhibition at 0.1 µg/mL was 94%. Besides, in series [2] (setting [6]), the inhibition at 1 µg/mL stood at 89%. This molecule also gave a CC50 at 5 days in series [3] above 13700 nM.

Take `Cc1cnc(N2CC3(CCOCC3)C2)c(C(=O)Nc2ccc(C(=O)N3CCc4cc(C(=O)Nc5ccccc5)sc4-c4ccccc43)cc2)c1` [Example 32, 6-(4-(5-methyl-2-(7-oxa-2-azaspiro[3.5]nonan-2-yl)nicotinamido)benzoyl)-N-phenyl-5,6-dihydro-4H-benzo[b] thieno[2,3-d]azepine-2-carboxamide]: the values for the half-inhibitory concentration (IC50) in series [1] (setting [4]) and in series [2] (setting [5]) were below 0.015 nM and 38.2 nM, respectively. The inhibition at 0.1 µg/mL in series [1] (setting [7]) was 100%. In series [2] (setting [6]), the inhibition at 1 µg/mL was found to be 81%. The same molecule displayed a CC50 at 5 days in series [3] above 14600 nM.

Turning to `Cc1cnc(N2CC3(CCOCC3)C2)c(C(=O)Nc2ccc(C(=O)N3CCc4cc(C(=O)Nc5c(C)cccc5C)sc4-c4ccccc43)cc2)c1` [Example 64, N-(2,6-dimethylphenyl)-6-(4-(5-methyl-2-(7-oxa-2-aza-spiro[3.5]nonan-2-yl)nicotinamido)benzoyl)-5,6-dihydro-4H-benzo[b]thieno[2,3-d]azepine-2-carboxamide], the half-maximal inhibitory concentration (IC50) worked out at 0.25 nM in series [1] (setting [4]) and 1.1 nM in series [2] (setting [5]). The molecule further gave an inhibition at 0.01 µg/mL in series [1] (HEp-2, HEp2 cells) of 100%. In series [2] (setting [6]), the inhibition at 1 µg/mL stood at 100%. In series [3], this molecule showed a half-maximal cytotoxic concentration (CC50) at 5 days above 14000 nM.

`Cc1cccc(F)c1NC(=O)c1cc2c(s1)-c1ccccc1N(C(=O)c1ccc(NC(=O)c3cc4c(nc3N3CC5(CCOCC5)C3)CCOC4)cc1)CC2` [Example 12, N-(4-(2-((2-Fluoro-6-methylphenyl)carbamoyl)-5,6-dihydro-4H-benzo[b]thieno[2,3-d]azepine-6-carbonyl)phenyl)-2-(7-oxa-2-azaspiro[3.5]nonan-2-yl)-7,8-di hydro-5H-pyrano[4,3-b]pyridine-3-carboxamide]: the results for the half-maximal inhibitory concentration (IC50) in series [1] (setting [4]) and in series [2] (setting [5]) were 0.42 nM and 1.3 nM, respectively. Further, the inhibition at 0.01 µg/mL in series [1] (HEp-2, HEp2 cells) was 100%. The inhibition at 1 µg/mL in series [2] (setting [6]) came out at 98%. The half-maximal cytotoxic concentration (CC50) at 5 days in series [3] is above 13200 nM.

For the molecule `Cc1ccccc1NC(=O)c1cc2c(s1)-c1ccccc1N(C(=O)c1ccc(NC(=O)c3cc(C)c(C)nc3N3CC4(CCOCC4)C3)cc1)CC2` [Example 42, 6-(4-(5,6-dimethyl-2-(7-oxa-2-azaspiro[3.5]nonan-2-yl)nicotinamido)benzoyl)-N-(o-tolyl)-5,6-dihydro-4H-benzo[b] thieno[2,3-d]azepine-2-carboxamide], the IC50 in series [1] (setting [4]) is 0.14 nM; in series [2] (setting [5]), 60.5 nM. Further, in series [1] (setting [7]), the inhibition at 0.1 µg/mL stood at 97%. In addition, the inhibition at 1 µg/mL in series [2] (setting [6]) came out at 80%. Moreover, the CC50 at 5 days in series [3] was above 14000 nM.

In the case of `CCc1ccccc1NC(=O)c1cc2c(s1)-c1ccccc1N(C(=O)c1ccc(NC(=O)c3cccnc3N3CC4(CCOCC4)C3)cc1)CC2` [Example 17, 6-(4-(2-(7-oxa-2-azaspiro[3.5]nonan-2-yl)nicotinamido)benzoyl)-N-(2-ethylphenyl)-5,6-dihydro-4H-benzo[b]thieno [2,3-d]azepine-2-carboxamide], the IC50 in series [1] (setting [4]) is 0.66 nM; in series [2] (setting [5]), 204 nM. Moreover, in series [1] (setting [7]), the inhibition at 0.1 µg/mL worked out at 100%. In addition, in series [2] (setting [6]), the inhibition at 1 µg/mL amounted to 77%. Besides, the 50% cytotoxic concentration (CC50) at 5 days in series [3] is above 14300 nM.

`COc1ccc(C(=O)Nc2ccc(C(=O)N3CCc4cc(C(=O)Nc5ccccc5F)sc4-c4ccccc43)cc2)c(N2CC3(CCOCC3)C2)n1` [Example 3, 6-(4-(6-methoxy-2-(7-oxa-2-azaspiro[3.5]nonan-2-yl)nicotinamido)benzoyl)-N-(2-fluorophenyl)-5,6-dihydro-4H-benzo[b]thieno[2,3-d]azepine-2-carboxamide]: the IC50 in series [1] (setting [4]) came to 1.3 nM; in series [2] (setting [5]), 195 nM. Moreover, the inhibition at 0.1 µg/mL in series [1] (setting [7]) is 100%. For the same molecule, the inhibition at 1 µg/mL in series [2] (setting [6]) came out at 58%. This molecule also displayed a 50% cytotoxic concentration (CC50) at 5 days in series [3] above 13900 nM.

Regarding `O=C(Nc1c(F)cccc1F)c1cc2c(s1)-c1ccccc1N(C(=O)c1ccc(NC(=O)c3cc4c(nc3N3CC5(CCOCC5)C3)CCOC4)cc1)CC2` [Example 82, N-(4-(2-((2,6-difluorophenyl)carbamoyl)-5,6-dihydro-4H-benzo[b]thieno[2,3-d]azepine-6-carbonyl)phenyl)-2-(7-oxa-2-azaspiro[3.5]nonan-2-yl)-7,8-dihydro-5H-pyrano[4,3-b] pyridine-3-carboxamide], the half-inhibitory concentration (IC50) in series [1] (setting [4]) is 0.78 nM; in series [2] (setting [5]), 7.6 nM. Also, 0.01 µg/mL produced 97% inhibition in series [1] (HEp-2, HEp2 cells). In series [2] (HEp-2, HEp2 cells), this molecule gave an inhibition at 0.1 µg/mL of 100%. In series [3], this molecule displayed a half-maximal cytotoxic concentration (CC50) at 5 days above 13100 nM.

For the molecule `N#Cc1ccccc1NC(=O)c1cc2c(s1)-c1ccccc1N(C(=O)c1ccc(NC(=O)c3cccnc3N3CC4(CCOCC4)C3)cc1)CC2` [Example 2, 6-(4-(2-(7-oxa-2-azaspiro[3.5]nonan-2-yl)nicotinamido)benzoyl)-N-(2-cyanophenyl)-5,6-dihydro-4H-benzo[b]thieno[2,3-d]azepine-2-carboxamide], the figures for the IC50 in series [1] (read-out: RSV A2 CPE IC50 (nM)) and in series [2] (read-out: RSV B CPE IC50 (nM)) were 0.16 nM and 314 nM, respectively. For the same molecule, the inhibition at 0.1 µg/mL in series [1] (HEp-2, read-out: RSV A2 CPE % Inhibition) amounted to 91%. Further, the inhibition at 1 µg/mL in series [2] (HEp-2, read-out: RSV B CPE % Inhibition) turned out to be 69%. Further, in series [3], the 50% cytotoxic concentration (CC50) at 5 days was above 14400 nM.
